Measurements as given in patent US9113629B2, “4-amino-6-(4-substituted-phenyl)-picolinates and 6-amino-2-(4-substituted-phenyl)-pyrimidine-4-carboxylates and their use as herbicides” (DOW AGROSCIENCES LLC, priority 2013, dated 2015).
Where two headings read alike, the source gives them in different places.

What was measured:
[1] = tested on: Key Broadleaf Weed and Crop Species; experiment: Post-emergent Test II herbicidal activity (Table 5); format: in vivo; conditions: post-emergence, 336 h, 14 days after application; for pest or weed control at 70 g/ha: application rate 70 g ai/ha; for pest or weed control at 140 g/ha: application rate 140 g ai/ha
Outline: (§1)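 Injury was rated visually 14 d after treatment on a 0–100% scale against untreated controls. Test compounds, formulated with crop oil concentrate and surfactant and serially diluted down to 1/16× of the top rate, were applied by track sprayer at 187 L/ha onto first- to second-true-leaf seedlings.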

[2] = tested on: Key Grass and Sedge Weeds as well as Grass Crops; experiment: Post-emergent Test II herbicidal activity (Table 6); format: in vivo; conditions: post-emergence, 336 h; for pest or weed control at 70 g/ha: 70 g ai/ha; for pest or weed control at 140 g/ha: 140 g ai/ha
Outline: as §1

[3] = ABUTH: velvetleaf (Abutilon theophrasti), read-out: Visual Growth Reduction (%) 14 Days After Application, ABUTH
[4] = AMARE: redroot pigweed (Amaranthus retroflexus), read-out: Visual Growth Reduction (%) 14 Days After Application, AMARE
[5] = BRSNN: oilseed-rape, canola (Brassica napus), read-out: Visual Growth Reduction (%) 14 Days After Application, BRSNN
[6] = CHEAL: lambsquarters (Chenopodium album), read-out: Visual Growth Reduction (%) 14 Days After Application, CHEAL
[7] = EPHHL: wild poinsettia (Euphorbia heterophylla), read-out: Visual Growth Reduction (%) 14 Days After Application, EPHHL
[8] = HELAN: sunflower (Helianthus annuus), read-out: Visual Growth Reduction (%) 14 Days After Application, HELAN
[9] = VIOTR: wild pansy (Viola tricolor), read-out: Visual Growth Reduction (%) 14 Days After Application, VIOTR
[10] = CYPES: yellow nutsedge (Cyperus esculentus), read-out: Visual Growth Reduction (%) 14 Days After Application, CYPES
[11] = DIGSA: crabgrass (Digitaria sanguinalis), read-out: Visual Growth Reduction (%) 14 Days After Application, DIGSA
[12] = ECHCG: barnyardgrass (Echinochloa crus-galli), read-out: Visual Growth Reduction (%) 14 Days After Application, ECHCG
[13] = ORYSA: rice (Oryza sativa), crop, read-out: Visual Growth Reduction (%) 14 Days After Application, ORYSA
[14] = SETFA: giant foxtail (Setaria faberi), read-out: Visual Growth Reduction (%) 14 Days After Application, SETFA
[15] = SORVU: grain sorghum (Sorghum vulgare), read-out: Visual Growth Reduction (%) 14 Days After Application, SORVU
[16] = TRZSS (wheat, Triticum aestivum), crop, read-out: Visual Growth Reduction (%) 14 Days After Application, TRZSS
[17] = ZEAMX: maize, corn (Zea mays), crop, read-out: Visual Growth Reduction (%) 14 Days After Application, ZEAMX

For `COC(=O)c1nc(-c2ccc(F)cc2)c(F)c(N)c1Cl` [Compound 204], the pest or weed control at 70 g/ha [1, 3] was 95 to 100%, the pest or weed control at 140 g/ha [1, 3] was 95 to 100% and the pest or weed control at 70 g/ha [1, 4] was 95 to 100%. For the same molecule, the pest or weed control at 140 g/ha [1, 4] was 95 to 100%, the pest or weed control at 70 g/ha [1, 5] was 85 to 94% and the pest or weed control at 140 g/ha [1, 5] was 95 to 100%. The pest or weed control at 70 g/ha [1, 6] was 95 to 100%, the pest or weed control at 140 g/ha [1, 6] was 95 to 100% and the pest or weed control at 70 g/ha [1, 7] was 95 to 100%. For the same molecule, the pest or weed control at 140 g/ha [1, 7] was 95 to 100%, the pest or weed control at 70 g/ha [1, 8] was 95 to 100% and the pest or weed control at 140 g/ha [1, 8] was 95 to 100%. The pest or weed control at 70 g/ha [1, 9] was 75 to 84%, the pest or weed control at 140 g/ha [1, 9] was 95 to 100% and the pest or weed control at 70 g/ha [2, 10] was 85 to 94%. The pest or weed control at 140 g/ha [2, 10] was 85 to 94%, the pest or weed control at 70 g/ha [2, 11] was 60 to 74% and the pest or weed control at 140 g/ha [2, 11] was 60 to 74%. It also gave a pest or weed control at 70 g/ha [2, 12] of 95 to 100%, a pest or weed control at 140 g/ha [2, 12] of 95 to 100% and a pest or weed control at 70 g/ha [2, 13] of 0 to 29%. For the same molecule, the pest or weed control at 140 g/ha [2, 13] was 0 to 29%, the pest or weed control at 70 g/ha [2, 14] was 0 to 29% and the pest or weed control at 140 g/ha [2, 14] was 45 to 59%. It also gave a pest or weed control at 70 g/ha [2, 15] of 75 to 84%, a pest or weed control at 140 g/ha [2, 15] of 85 to 94% and a pest or weed control at 70 g/ha [2, 16] of 45 to 59%. For the same molecule, the pest or weed control at 140 g/ha [2, 16] was 60 to 74%, the pest or weed control at 70 g/ha [2, 17] was 75 to 84% and the pest or weed control at 140 g/ha [2, 17] was 75 to 84%. For the same molecule, the melting point was 131 °C.
